# Source: paper PMC4245164 (ACS Chemical Biology, 2014)
# Target: NLuc (Oplophorus gracilirostris, UniProt Q9GV45, A31E/A60N/A81I/F95D/I117V/K70R/L54V/L99Q/M102K/N193R/P142E/Q151K/Q38R/Q45L/V71I/Y165I)
# Assay: Biochemical NLuc enzyme assay with S16 secNLuc cell culture medium
# Sequence of NLuc (Q9GV45 28-196 with the stated changes): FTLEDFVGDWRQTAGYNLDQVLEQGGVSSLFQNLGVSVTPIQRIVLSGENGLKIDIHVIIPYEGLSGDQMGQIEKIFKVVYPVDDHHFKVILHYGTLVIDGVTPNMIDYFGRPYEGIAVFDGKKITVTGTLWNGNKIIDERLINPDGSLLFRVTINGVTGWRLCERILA
row,SMILES,IC50
1,CCOC(=O)C1=C(C)NC(C)=C(C(=O)OC)C1c1cccc([N+](=O)[O-])c1 (centres unmarked) [nitrendipine],6 µM
2,COC(=O)C1=C(C)NC(C)=C(C(=O)OC(C)C)C1c1cccc2nonc12 (centres unmarked) [isradipine],6 µM
